{"source": "patent US7851510B2", "about": "“Gossypol derivatives, production method thereof and uses of same” (Centre National de la Recherche Scientifique (C.N.R.S.), priority 2004, dated 2010)", "key": {"PRAK": {"target": "T1, PRAK (Homo sapiens, UniProt Q8IW41)", "T1 sequence (Q8IW41 1-473)": "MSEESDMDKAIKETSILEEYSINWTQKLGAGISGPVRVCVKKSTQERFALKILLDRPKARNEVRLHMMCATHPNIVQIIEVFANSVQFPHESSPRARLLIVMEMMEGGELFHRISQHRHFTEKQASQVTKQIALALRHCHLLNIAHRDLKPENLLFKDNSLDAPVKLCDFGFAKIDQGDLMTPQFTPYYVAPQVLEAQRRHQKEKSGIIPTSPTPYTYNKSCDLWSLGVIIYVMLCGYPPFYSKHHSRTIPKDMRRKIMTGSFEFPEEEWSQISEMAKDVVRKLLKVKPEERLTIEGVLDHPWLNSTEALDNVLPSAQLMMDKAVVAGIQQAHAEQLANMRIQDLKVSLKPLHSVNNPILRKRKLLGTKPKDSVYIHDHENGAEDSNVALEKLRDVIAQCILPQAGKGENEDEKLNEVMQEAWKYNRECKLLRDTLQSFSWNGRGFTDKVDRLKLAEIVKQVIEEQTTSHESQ", "experiment": "Protein kinase activity in the presence of compound", "assay_type": "biochemical", "settings": "for remaining activity at 10 µM: read-out: Residual activity PRAK", "protocol": "(§1) The action of the compound of formula (14) was tested on a selection of 29 different protein kinases. The activity of these enzymes was measured in the presence of 10 μM of compound, according to the general methodology described by Bain et al. (2003) Biochem. J. 371:199-204 and Davies et al. (2000) Biochem. J. 351:95-105.\n(§2) Residual enzyme activity of protein kinases in the presence of inhibitor compounds at the concentration given (expressed as a percentage of the activity measured in the absence of inhibitors). The results obtained for gossypol and gossypolone are given by way of comparison."}, "p70 S6K": {"system": "p70 S6K", "experiment": "Protein kinase activity in the presence of compound", "assay_type": "biochemical", "settings": "10 μM compound; percentage of the activity measured in the absence of inhibitors", "protocol": "as §1, §2"}, "PHK": {"target": "PHK (Oryctolagus cuniculus, UniProt P00518)", "experiment": "Protein kinase activity in the presence of compound", "assay_type": "biochemical", "settings": "read-out: Residual activity PHK", "protocol": "as §1, §2"}, "CDK2/cyclin A": {"target": "CDK2/cyclin A (Homo sapiens, UniProt P24941)", "experiment": "Protein kinase activity in the presence of compound", "assay_type": "biochemical", "settings": "read-out: Residual activity CDK2/cyclin A", "protocol": "as §1, §2"}, "MAPK2/ERK2": {"target": "MAPK2/ERK2 (Homo sapiens, UniProt P28482)", "sequence (P28482 whole entry)": "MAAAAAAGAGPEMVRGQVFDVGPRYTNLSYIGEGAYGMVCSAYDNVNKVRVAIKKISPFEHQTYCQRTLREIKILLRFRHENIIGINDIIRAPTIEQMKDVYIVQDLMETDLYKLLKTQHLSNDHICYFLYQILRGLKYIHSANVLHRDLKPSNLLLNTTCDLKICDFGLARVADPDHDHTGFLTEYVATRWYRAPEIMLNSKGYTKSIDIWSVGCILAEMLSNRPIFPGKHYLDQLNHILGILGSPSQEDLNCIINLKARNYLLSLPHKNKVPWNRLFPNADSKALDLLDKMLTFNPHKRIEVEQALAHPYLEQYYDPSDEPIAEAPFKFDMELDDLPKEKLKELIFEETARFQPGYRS", "experiment": "Protein kinase activity in the presence of compound", "assay_type": "biochemical", "settings": "read-out: Residual activity MAPK2/ERK2", "protocol": "as §1, §2"}, "CK1": {"system": "CK1", "experiment": "Protein kinase activity in the presence of compound", "assay_type": "biochemical", "settings": "10 μM compound; percentage of the activity measured in the absence of inhibitors", "protocol": "as §1, §2"}, "JNK/SAPK1c": {"target": "JNK/SAPK1c (Homo sapiens, UniProt P45983)", "sequence (P45983 whole entry)": "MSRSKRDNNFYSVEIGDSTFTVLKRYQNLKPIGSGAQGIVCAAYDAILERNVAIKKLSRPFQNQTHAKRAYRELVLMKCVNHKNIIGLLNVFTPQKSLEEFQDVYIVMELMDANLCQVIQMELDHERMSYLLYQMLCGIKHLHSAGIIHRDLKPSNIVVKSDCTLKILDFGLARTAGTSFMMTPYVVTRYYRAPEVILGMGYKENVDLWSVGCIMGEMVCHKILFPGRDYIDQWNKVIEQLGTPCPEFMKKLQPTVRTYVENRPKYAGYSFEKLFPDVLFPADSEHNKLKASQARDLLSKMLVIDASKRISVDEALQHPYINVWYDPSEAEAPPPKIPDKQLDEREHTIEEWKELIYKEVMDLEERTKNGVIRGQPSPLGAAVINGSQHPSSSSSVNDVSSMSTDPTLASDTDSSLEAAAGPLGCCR", "experiment": "Protein kinase activity in the presence of compound", "assay_type": "biochemical", "settings": "read-out: Residual activity JNK/SAPK1c", "protocol": "as §1, §2"}, "CK2": {"target": "CK2 (Homo sapiens, UniProt P68400)", "sequence (P68400 whole entry)": "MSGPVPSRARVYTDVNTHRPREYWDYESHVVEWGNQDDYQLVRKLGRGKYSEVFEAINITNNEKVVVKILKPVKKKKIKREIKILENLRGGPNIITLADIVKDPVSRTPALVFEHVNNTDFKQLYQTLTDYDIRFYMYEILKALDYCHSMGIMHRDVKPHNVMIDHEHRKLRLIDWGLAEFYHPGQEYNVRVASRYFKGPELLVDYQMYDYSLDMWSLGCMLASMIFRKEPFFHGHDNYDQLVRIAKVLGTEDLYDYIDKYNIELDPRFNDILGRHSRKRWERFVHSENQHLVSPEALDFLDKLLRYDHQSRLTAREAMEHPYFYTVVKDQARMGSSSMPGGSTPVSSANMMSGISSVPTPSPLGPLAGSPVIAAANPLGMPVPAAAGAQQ", "experiment": "Protein kinase activity in the presence of compound", "assay_type": "biochemical", "settings": "read-out: Residual activity CK2", "protocol": "as §1, §2"}, "SAPK2b/p38β2": {"target": "SAPK2b/p38β2 (Homo sapiens, UniProt Q15759)", "sequence (Q15759 whole entry)": "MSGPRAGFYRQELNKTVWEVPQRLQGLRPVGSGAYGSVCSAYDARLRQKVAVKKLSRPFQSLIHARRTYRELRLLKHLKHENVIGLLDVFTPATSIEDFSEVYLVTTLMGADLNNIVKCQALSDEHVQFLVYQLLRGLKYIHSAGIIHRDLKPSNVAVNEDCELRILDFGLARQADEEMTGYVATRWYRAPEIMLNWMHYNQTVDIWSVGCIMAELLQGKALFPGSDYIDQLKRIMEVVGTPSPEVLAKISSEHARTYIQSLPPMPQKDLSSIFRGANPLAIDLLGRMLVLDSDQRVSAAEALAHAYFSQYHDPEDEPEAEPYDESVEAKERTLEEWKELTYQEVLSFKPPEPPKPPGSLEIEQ", "experiment": "Protein kinase activity in the presence of compound", "assay_type": "biochemical", "settings": "read-out: Residual activity SAPK2b/p38β2", "protocol": "as §1, §2"}, "MAPKAP-K1a": {"target": "MAPKAP-K1a (Homo sapiens, UniProt Q15418)", "sequence (Q15418 whole entry, species assumed)": "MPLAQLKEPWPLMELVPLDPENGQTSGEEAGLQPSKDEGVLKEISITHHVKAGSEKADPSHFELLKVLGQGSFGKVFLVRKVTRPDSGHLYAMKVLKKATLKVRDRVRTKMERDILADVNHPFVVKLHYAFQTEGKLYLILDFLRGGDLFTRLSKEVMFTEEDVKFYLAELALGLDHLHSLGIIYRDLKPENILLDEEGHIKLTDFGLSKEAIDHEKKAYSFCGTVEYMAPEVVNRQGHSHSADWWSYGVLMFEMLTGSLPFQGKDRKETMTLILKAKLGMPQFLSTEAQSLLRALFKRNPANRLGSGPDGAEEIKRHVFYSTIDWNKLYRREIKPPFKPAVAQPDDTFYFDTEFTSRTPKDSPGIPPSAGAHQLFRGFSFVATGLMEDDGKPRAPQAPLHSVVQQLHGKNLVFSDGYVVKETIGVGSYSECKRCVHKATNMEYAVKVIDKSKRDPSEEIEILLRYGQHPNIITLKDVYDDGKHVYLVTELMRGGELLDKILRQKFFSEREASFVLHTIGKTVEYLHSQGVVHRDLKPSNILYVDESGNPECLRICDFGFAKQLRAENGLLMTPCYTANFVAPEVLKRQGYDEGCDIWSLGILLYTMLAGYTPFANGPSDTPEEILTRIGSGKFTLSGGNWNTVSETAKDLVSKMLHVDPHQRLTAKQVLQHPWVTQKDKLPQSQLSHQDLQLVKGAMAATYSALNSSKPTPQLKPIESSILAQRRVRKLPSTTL", "experiment": "Protein kinase activity in the presence of compound", "assay_type": "biochemical", "settings": "read-out: Residual activity MAPKAP-K1a", "protocol": "as §1, §2"}, "ROCK-II": {"target": "ROCK-II (Homo sapiens, UniProt O75116)", "sequence (O75116 whole entry, species assumed)": "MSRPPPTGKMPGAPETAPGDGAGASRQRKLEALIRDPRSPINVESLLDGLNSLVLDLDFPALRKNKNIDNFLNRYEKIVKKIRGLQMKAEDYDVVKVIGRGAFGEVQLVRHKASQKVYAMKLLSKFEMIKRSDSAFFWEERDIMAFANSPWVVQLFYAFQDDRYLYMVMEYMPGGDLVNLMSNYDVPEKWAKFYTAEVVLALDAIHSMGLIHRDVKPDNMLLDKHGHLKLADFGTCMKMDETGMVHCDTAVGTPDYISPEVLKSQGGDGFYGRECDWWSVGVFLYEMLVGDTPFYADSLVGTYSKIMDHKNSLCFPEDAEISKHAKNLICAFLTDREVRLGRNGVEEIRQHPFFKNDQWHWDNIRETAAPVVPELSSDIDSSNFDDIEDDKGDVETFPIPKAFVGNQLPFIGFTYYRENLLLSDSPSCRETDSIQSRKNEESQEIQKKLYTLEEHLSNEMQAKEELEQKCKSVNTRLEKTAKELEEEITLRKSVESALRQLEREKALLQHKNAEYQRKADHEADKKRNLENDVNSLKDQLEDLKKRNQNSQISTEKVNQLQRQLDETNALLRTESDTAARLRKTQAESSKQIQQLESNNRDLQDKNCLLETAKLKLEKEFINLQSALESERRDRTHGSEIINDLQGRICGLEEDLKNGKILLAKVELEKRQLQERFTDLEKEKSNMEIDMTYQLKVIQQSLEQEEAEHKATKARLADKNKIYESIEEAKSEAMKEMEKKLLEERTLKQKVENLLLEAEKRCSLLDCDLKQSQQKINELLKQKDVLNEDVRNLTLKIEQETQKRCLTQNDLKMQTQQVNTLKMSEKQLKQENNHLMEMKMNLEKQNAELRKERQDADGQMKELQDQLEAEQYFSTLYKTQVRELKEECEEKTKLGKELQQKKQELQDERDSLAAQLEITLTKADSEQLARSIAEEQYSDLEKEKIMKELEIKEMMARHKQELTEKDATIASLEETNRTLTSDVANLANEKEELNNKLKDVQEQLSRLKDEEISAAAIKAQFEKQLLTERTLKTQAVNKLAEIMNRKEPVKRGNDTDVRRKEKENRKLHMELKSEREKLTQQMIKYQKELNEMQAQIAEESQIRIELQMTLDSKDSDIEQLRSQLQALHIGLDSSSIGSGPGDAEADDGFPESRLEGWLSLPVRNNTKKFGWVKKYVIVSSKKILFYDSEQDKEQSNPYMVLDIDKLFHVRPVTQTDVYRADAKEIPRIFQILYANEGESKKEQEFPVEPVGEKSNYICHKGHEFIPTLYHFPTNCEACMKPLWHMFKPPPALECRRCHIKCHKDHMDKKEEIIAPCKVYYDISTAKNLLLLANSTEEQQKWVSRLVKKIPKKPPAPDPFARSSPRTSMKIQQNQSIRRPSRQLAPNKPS", "experiment": "Protein kinase activity in the presence of compound", "assay_type": "biochemical", "settings": "read-out: Residual activity ROCK-II", "protocol": "as §1, §2"}, "PDK1": {"target": "T2, PDK1 (Homo sapiens, UniProt O15530)", "T2 sequence (O15530 1-556)": "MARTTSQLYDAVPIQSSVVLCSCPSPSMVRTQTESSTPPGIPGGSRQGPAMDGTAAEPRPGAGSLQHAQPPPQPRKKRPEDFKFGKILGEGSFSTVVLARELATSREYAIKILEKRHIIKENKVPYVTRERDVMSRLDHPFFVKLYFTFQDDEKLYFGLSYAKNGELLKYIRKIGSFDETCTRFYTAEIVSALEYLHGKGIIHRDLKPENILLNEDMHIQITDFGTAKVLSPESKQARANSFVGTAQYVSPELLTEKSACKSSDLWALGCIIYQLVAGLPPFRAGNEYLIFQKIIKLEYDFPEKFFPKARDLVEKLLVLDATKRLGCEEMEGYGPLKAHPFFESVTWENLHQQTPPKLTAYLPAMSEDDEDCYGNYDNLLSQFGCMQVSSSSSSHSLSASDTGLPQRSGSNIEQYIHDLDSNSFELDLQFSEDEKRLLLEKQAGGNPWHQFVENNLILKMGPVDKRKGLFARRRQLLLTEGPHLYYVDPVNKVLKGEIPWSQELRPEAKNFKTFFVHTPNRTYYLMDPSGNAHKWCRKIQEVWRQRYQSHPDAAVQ", "experiment": "Protein kinase activity in the presence of compound", "assay_type": "biochemical", "settings": "read-out: Residual activity PDK1", "protocol": "as §1, §2"}, "MSK1": {"target": "MSK1 (Homo sapiens, UniProt O75582)", "sequence (O75582 whole entry, species assumed)": "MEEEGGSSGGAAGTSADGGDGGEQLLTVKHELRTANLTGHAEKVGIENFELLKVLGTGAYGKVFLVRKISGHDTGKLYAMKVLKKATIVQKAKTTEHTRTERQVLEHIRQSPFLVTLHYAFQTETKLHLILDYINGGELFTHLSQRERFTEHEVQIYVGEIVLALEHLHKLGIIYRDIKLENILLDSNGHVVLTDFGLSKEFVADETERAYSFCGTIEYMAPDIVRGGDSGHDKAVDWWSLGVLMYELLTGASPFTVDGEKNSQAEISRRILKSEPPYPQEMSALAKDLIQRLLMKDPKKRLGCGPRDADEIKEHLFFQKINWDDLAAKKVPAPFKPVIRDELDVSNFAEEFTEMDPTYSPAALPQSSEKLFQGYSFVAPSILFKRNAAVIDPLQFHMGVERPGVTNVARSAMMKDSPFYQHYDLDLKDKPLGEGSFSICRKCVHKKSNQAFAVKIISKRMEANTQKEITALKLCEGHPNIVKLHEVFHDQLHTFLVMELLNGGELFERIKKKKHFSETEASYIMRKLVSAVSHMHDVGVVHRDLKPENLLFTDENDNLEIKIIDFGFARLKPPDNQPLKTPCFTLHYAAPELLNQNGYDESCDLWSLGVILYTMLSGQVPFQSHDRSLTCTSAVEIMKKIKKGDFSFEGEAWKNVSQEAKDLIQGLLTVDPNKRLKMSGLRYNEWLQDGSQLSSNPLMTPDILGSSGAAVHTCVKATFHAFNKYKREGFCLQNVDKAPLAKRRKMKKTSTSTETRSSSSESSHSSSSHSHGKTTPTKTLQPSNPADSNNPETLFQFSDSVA", "experiment": "Protein kinase activity in the presence of compound", "assay_type": "biochemical", "settings": "read-out: Residual activity MSK1", "protocol": "as §1, §2"}, "KB tumour cell line": {"system": "KB tumour cell line", "experiment": "Cytotoxicity vis-à-vis the KB tumour cell line", "assay_type": "cell-based", "settings": "Homo sapiens", "protocol": "The cytotoxicity of the compound vis-à-vis the KB tumour cell line was measured as is described in Dao et al. (2003) Bioorg. Med. Chem. 11:2001-2006."}, "[1]": {"settings": "10 μM compound, percentage of the activity measured in the absence of inhibitors"}}, "note": "Like-named read-outs stand apart in the source and are kept apart here.", "data": [{"smiles": "CC1=C(C2=C(C)C(=O)c3c(c(O)c(O)c(O)c3C(C)C)C2=O)C(=O)c2c(O)c(O)c(O)c(C(C)C)c2C1=O", "note": "[Compound (4), 6,7,8,6′,7′,8′-hexahydroxy-5,5′-diisopropyl-3,3′-dimethyl-[2.2′]binaphthalenyl-1,4,1′,4′-tetraone]", "values": [{"measurement": "Reduction of the activity of PRAK", "setting": "PRAK; 10 μM compound", "value": 91, "unit": "%"}, {"measurement": "remaining activity at 10 µM", "setting": "PRAK", "value": 9, "unit": "%"}, {"measurement": "Residual activity p70 S6K", "setting": "p70 S6K", "value": 34, "unit": "%"}, {"measurement": "remaining activity at 10 µM", "setting": "PHK", "value": 47, "unit": "%"}, {"measurement": "remaining activity at 10 µM", "setting": "CDK2/cyclin A", "value": 113, "unit": "%"}, {"measurement": "remaining activity at 10 µM", "setting": "MAPK2/ERK2", "value": 52, "unit": "%"}, {"measurement": "Residual activity CK1", "setting": "CK1", "value": 88, "unit": "%"}, {"measurement": "remaining activity at 10 µM", "setting": "JNK/SAPK1c", "value": 105, "unit": "%"}, {"measurement": "remaining activity at 10 µM", "setting": "CK2", "value": 80, "unit": "%"}, {"measurement": "remaining activity at 10 µM", "setting": "SAPK2b/p38β2", "value": 124, "unit": "%"}, {"measurement": "remaining activity at 10 µM", "setting": "MAPKAP-K1a", "value": 58, "unit": "%"}, {"measurement": "remaining activity at 10 µM", "setting": "ROCK-II", "value": 75, "unit": "%"}, {"measurement": "remaining activity at 10 µM", "setting": "PDK1", "value": 88, "unit": "%"}, {"measurement": "remaining activity at 10 µM", "setting": "MSK1", "value": 69, "unit": "%"}, {"measurement": "IC50", "setting": "KB tumour cell line", "value": 1, "unit": "µM"}]}, {"smiles": "CC1=C(C2=C(C)C(=O)c3c(c(CSCCO)c(O)c(O)c3C(C)C)C2=O)C(=O)c2c(CSCCO)c(O)c(O)c(C(C)C)c2C1=O", "note": "[Compound (14), 6,7,6′,7′-tetrahydroxy-8,8′-bis-(2-hydroxy-ethylsulphanylmethyl)-5,5′-diisopropyl-3,3′-dimethyl-[2,2′]binaphthalenyl-1,4,1′,4′-tetraone]", "values": [{"measurement": "Reduction of the activity of PRAK", "setting": "PRAK; 10 μM compound", "value": 91, "unit": "%"}, {"measurement": "remaining activity at 10 µM", "setting": "PRAK; [1]", "value": 9, "unit": "%"}, {"measurement": "Residual activity p70 S6K", "setting": "p70 S6K", "value": 52, "unit": "%"}, {"measurement": "remaining activity at 10 µM", "setting": "PHK; [1]", "value": 27, "unit": "%"}, {"measurement": "remaining activity at 10 µM", "setting": "CDK2/cyclin A; [1]", "value": 111, "unit": "%"}, {"measurement": "remaining activity at 10 µM", "setting": "MAPK2/ERK2; [1]", "value": 58, "unit": "%"}, {"measurement": "Residual activity CK1", "setting": "CK1", "value": 77, "unit": "%"}, {"measurement": "remaining activity at 10 µM", "setting": "JNK/SAPK1c; [1]", "value": 88, "unit": "%"}, {"measurement": "remaining activity at 10 µM", "setting": "CK2; [1]", "value": 85, "unit": "%"}, {"measurement": "remaining activity at 10 µM", "setting": "SAPK2b/p38β2; [1]", "value": 113, "unit": "%"}, {"measurement": "remaining activity at 10 µM", "setting": "MAPKAP-K1a; [1]", "value": 60, "unit": "%"}, {"measurement": "remaining activity at 10 µM", "setting": "ROCK-II; [1]", "value": 73, "unit": "%"}, {"measurement": "remaining activity at 10 µM", "setting": "PDK1; [1]", "value": 65, "unit": "%"}, {"measurement": "remaining activity at 10 µM", "setting": "MSK1; [1]", "value": 83, "unit": "%"}]}, {"smiles": "Cc1cc2c(C(C)C)c(O)c(O)c(C=O)c2c(O)c1-c1c(C)cc2c(C(C)C)c(O)c(O)c(C=O)c2c1O", "note": "[Gossypol, gossypol]", "values": [{"measurement": "remaining activity at 10 µM", "setting": "PRAK", "value": 48, "unit": "%"}, {"measurement": "Residual activity p70 S6K", "setting": "p70 S6K", "value": 110, "unit": "%"}, {"measurement": "remaining activity at 10 µM", "setting": "PHK", "value": 23, "unit": "%"}, {"measurement": "remaining activity at 10 µM", "setting": "CDK2/cyclin A", "value": 97, "unit": "%"}, {"measurement": "remaining activity at 10 µM", "setting": "MAPK2/ERK2", "value": 65, "unit": "%"}, {"measurement": "Residual activity CK1", "setting": "CK1", "value": 89, "unit": "%"}, {"measurement": "remaining activity at 10 µM", "setting": "JNK/SAPK1c", "value": 90, "unit": "%"}, {"measurement": "remaining activity at 10 µM", "setting": "CK2", "value": 80, "unit": "%"}, {"measurement": "remaining activity at 10 µM", "setting": "SAPK2b/p38β2", "value": 125, "unit": "%"}, {"measurement": "remaining activity at 10 µM", "setting": "MAPKAP-K1a", "value": 77, "unit": "%"}, {"measurement": "remaining activity at 10 µM", "setting": "ROCK-II", "value": 80, "unit": "%"}, {"measurement": "remaining activity at 10 µM", "setting": "PDK1", "value": 71, "unit": "%"}, {"measurement": "remaining activity at 10 µM", "setting": "MSK1", "value": 79, "unit": "%"}]}, {"smiles": "CC1=C(C2=C(C)C(=O)c3c(c(C=O)c(O)c(O)c3C(C)C)C2=O)C(=O)c2c(C=O)c(O)c(O)c(C(C)C)c2C1=O", "note": "[Gossypolone, gossypolone, reference compound]", "values": [{"measurement": "remaining activity at 10 µM", "setting": "PRAK", "value": 9, "unit": "%"}, {"measurement": "Residual activity p70 S6K", "setting": "p70 S6K", "value": 35, "unit": "%"}, {"measurement": "remaining activity at 10 µM", "setting": "PHK", "value": 21, "unit": "%"}, {"measurement": "remaining activity at 10 µM", "setting": "CDK2/cyclin A", "value": 90, "unit": "%"}, {"measurement": "remaining activity at 10 µM", "setting": "MAPK2/ERK2", "value": 46, "unit": "%"}, {"measurement": "Residual activity CK1", "setting": "CK1", "value": 64, "unit": "%"}, {"measurement": "remaining activity at 10 µM", "setting": "JNK/SAPK1c", "value": 86, "unit": "%"}, {"measurement": "remaining activity at 10 µM", "setting": "CK2", "value": 79, "unit": "%"}, {"measurement": "remaining activity at 10 µM", "setting": "SAPK2b/p38β2", "value": 102, "unit": "%"}, {"measurement": "remaining activity at 10 µM", "setting": "MAPKAP-K1a", "value": 55, "unit": "%"}, {"measurement": "remaining activity at 10 µM", "setting": "ROCK-II", "value": 54, "unit": "%"}, {"measurement": "remaining activity at 10 µM", "setting": "PDK1", "value": 51, "unit": "%"}, {"measurement": "remaining activity at 10 µM", "setting": "MSK1", "value": 85, "unit": "%"}]}]}
